± gives the expanded uncertainty stated by the source.
Conditions: Transpiration method

CC1COC(=O)O1 (stereo unspecified) [4-methyl-1,3-dioxolan-2-one]
Liquid
Conditions	vapor or sublimation pressure [kPa]
298.4 K	0.0085 ± 0.00045
303.3 K	0.01247 ± 0.00065
308.2 K	0.0181 ± 0.00094
311.3 K	0.0223 ± 0.0011
313.2 K	0.02529 ± 0.0013
318.2 K	0.03723 ± 0.0019
321.2 K	0.04503 ± 0.0023
322.7 K	0.05193 ± 0.0028
324.2 K	0.05893 ± 0.0031
326.6 K	0.06788 ± 0.0035
329.6 K	0.08307 ± 0.0043
332.7 K	0.1019 ± 0.0053
335.7 K	0.1281 ± 0.0066
337.7 K	0.1375 ± 0.007
338.8 K	0.1525 ± 0.0079
340.8 K	0.1721 ± 0.0088
341.8 K	0.1787 ± 0.0092
344.9 K	0.2178 ± 0.011

O=C1OCCO1 [ethylene carbonate]
Conditions	vapor or sublimation pressure [kPa]
280.6 K, Crystal	0.00062 ± 4e-05
286.2 K, Crystal	0.00119 ± 7e-05
291.3 K, Crystal	0.002 ± 0.00011
295.5 K, Crystal	0.00325 ± 0.00018
299.4 K, Crystal	0.00472 ± 0.00025
303.2 K, Crystal	0.00675 ± 0.00036
304.4 K, Crystal	0.00785 ± 0.00042
306.4 K, Crystal	0.00907 ± 0.00048
308.4 K, Crystal	0.01077 ± 0.00056
310.3 K, Liquid	0.012 ± 0.00063
314.4 K, Liquid	0.01615 ± 0.00084
314.5 K, Liquid	0.01614 ± 0.00084
317.3 K, Liquid	0.02 ± 0.001
320.3 K, Liquid	0.02499 ± 0.0013
320.4 K, Liquid	0.02475 ± 0.0013
323.5 K, Liquid	0.0305 ± 0.0016
324.4 K, Liquid	0.03281 ± 0.0017
327.4 K, Liquid	0.03939 ± 0.002
328.6 K, Liquid	0.04312 ± 0.0022
331.3 K, Liquid	0.05119 ± 0.0026
333.6 K, Liquid	0.05962 ± 0.0031
335.4 K, Liquid	0.06848 ± 0.0035
338.7 K, Liquid	0.08312 ± 0.0043
341.4 K, Liquid	0.0978 ± 0.005
342.3 K, Liquid	0.1031 ± 0.0052
343.8 K, Liquid	0.1094 ± 0.0056
345.2 K, Liquid	0.1213 ± 0.0062
347.6 K, Liquid	0.1379 ± 0.0071
349 K, Liquid	0.154 ± 0.008
352.4 K, Liquid	0.1869 ± 0.0095
354 K, Liquid	0.2037 ± 0.01
357.5 K, Liquid	0.2473 ± 0.013
358.9 K, Liquid	0.2642 ± 0.014
360.6 K, Liquid	0.292 ± 0.015
363.2 K, Liquid	0.3283 ± 0.017
364.1 K, Liquid	0.3486 ± 0.018
366.7 K, Liquid	0.4047 ± 0.021
369.5 K, Liquid	0.4694 ± 0.024

O=C1OCC(CO)O1 (stereo unspecified) [glycerine carbonate]
Liquid
Conditions	vapor or sublimation pressure [kPa]
330.2 K	0.00029 ± 2e-05
333.2 K	0.00039 ± 2e-05
338.3 K	0.00062 ± 3e-05
343.2 K	0.00091 ± 5e-05
348.4 K	0.00144 ± 8e-05
351.2 K	0.00173 ± 9e-05
355.5 K	0.0025 ± 0.00013
359.8 K	0.00368 ± 0.00018
360.6 K	0.00362 ± 0.00018
363.7 K	0.00433 ± 0.00023
366.4 K	0.00542 ± 0.00028
369.4 K	0.00681 ± 0.00035
371.8 K	0.00782 ± 0.00041
373.2 K	0.00886 ± 0.00047
377.2 K	0.01171 ± 0.00062
384.5 K	0.02019 ± 0.001
387.3 K	0.02392 ± 0.0012
388 K	0.02471 ± 0.0013
392.7 K	0.03339 ± 0.0017
398.5 K	0.04694 ± 0.0024

CCC1COC(=O)O1 (stereo unspecified) [1,2-butylene carbonate]
Liquid
Conditions	vapor or sublimation pressure [kPa]
288.6 K	0.00186 ± 0.0001
293.5 K	0.00284 ± 0.00015
298.5 K	0.00453 ± 0.00024
303.4 K	0.00649 ± 0.00034
307.3 K	0.0087 ± 0.00046
310.3 K	0.01164 ± 0.00061
313.3 K	0.01439 ± 0.00075
316.3 K	0.01837 ± 0.00096
319.3 K	0.02281 ± 0.0012
322.5 K	0.02805 ± 0.0015
327.4 K	0.04092 ± 0.0021
330.3 K	0.04839 ± 0.0025
333.6 K	0.06415 ± 0.0033
338.7 K	0.086 ± 0.0044
343.8 K	0.1159 ± 0.0059

Reference: the NIST ThermoML archive (doi:10.1016/j.fluid.2008.03.013)
